Activity calls are given as the source filed them.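 How the source made its calls: active means compounds giving half or more protection of infected cells from virus-caused growth loss, again on retest; inactive means the rest.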

Usually EC50 stands for the concentration needed to bring the measured effect to its halfway point. In general, IC50 refers to the concentration that gives 50% inhibition. Higher therefore signals a need for much substance.

This assay relates to CEM cells HIV-1 protection, formazan growth assay. Nature of the assay: NCI AIDS Antiviral Assay. The note with it: for IC50: measured here: growth of uninfected CEM cells. Put shortly:
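CEM (human) cells, HIV-1 infected vs uninfected, 5-point dosing, formazan growth read-out. Retest threshold 50% protection.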

With `CCCCCCCN1C(=O)C(O)(c2ccc(C3(O)C(=O)N(CCCCCCC)c4ccccc43)s2)c2ccccc21` (stereo not drawn), the EC50 was over 200 µM and the IC50 stood at 11.2 µM.

Take `O=C1/C(=C\c2cccc(Oc3ccccc3)c2)S(=O)(=O)C(c2ccccc2)N1c1cccc([N+](=O)[O-])c1` (stereo not drawn): the EC50 was over 200 µM and the IC50 is 9.55 µM.

In the case of `O=C(ON=c1c2ccccc2ccc2ccccc12)c1ccccc1`, the EC50 is over 200 µM and the concentration for half-maximal inhibition (IC50) is 33.9 µM.

For the molecule `COc1cc2c(c3c1c(=O)c1ccccc1n3C)C=CC1(CCCCC1)O2`, the EC50 is over 200 µM and the IC50 came to 7.76 µM.

Regarding `COc1ccc2cc(C(=O)NCCCNC(=O)c3ccc4cc(OC)ccc4c3)ccc2c1`, the result was inactive.

As for `CNC1(C(=O)O)CC1`, the EC50 was over 200 µM and the IC50 is over 200 µM.

Take `COC(=O)c1cnn2c1ccc1ccccc12`: the EC50 is over 200 µM and the IC50 is 29.5 µM.

As to `O=S1(=O)C=C(c2ccccc2)C2(c3ccccc3)C=NNC21` (stereo not drawn), the EC50 was over 200 µM and the IC50 is over 200 µM.

Regarding `CO[C@H]1O[C@@H]2OC3(C)CCC4[C@H](C)CCC([C@H]1C)[C@]42OO3` (stereo partly drawn), the EC50 is over 200 µM and the IC50 is 112 µM.

As for `Cc1ccc(S(=O)OC2c3ccccc3Cc3ccccc32)cc1` (stereo not drawn), the result was inactive.

For `CCOC(=O)c1cc(-c2ccc(OC)c(OC)c2)c[nH]1`, the EC50 is over 200 µM and the half-maximal inhibitory concentration (IC50) came out at 50.1 µM.

Turning to `CC1(CC2=C(Br)CCCC2)C(=O)CC=C1O` (stereo not drawn), the EC50 is over 200 µM and the IC50 was 174 µM.

Turning to `O=C(N/C(=C\c1ccccc1O)C1NC(Cc2c[nH]c3ccccc23)C(=O)O1)c1ccccc1` (stereo not drawn), the EC50 was over 100 µM and the IC50 came out at 74.1 µM.

As to `C[C@H]1N(O)CC2OC(n3ccc(=O)[nH]c3=O)C(O)C21O` (mixture of isomers), the EC50 is over 200 µM and the IC50 was over 200 µM.

In the case of `OCC1(CO)CC2C3C=CC(C3)C2C1` (stereo not drawn), the EC50 was over 229 µM and the IC50 was over 229 µM.

On to `CCOC(=O)C(=O)Nc1ccc([N+](=O)[O-])cc1C#N`, for which the EC50 is over 355 µM and the IC50 is over 355 µM.

As to `CCOC(=O)c1nc2c3c(ncn2n1)Oc1c(c(-c2ccccc2)nn1-c1ccccc1)C3c1ccc(Cl)cc1` (stereo not drawn), the EC50 was over 200 µM and the IC50 is over 200 µM.

Take `Nc1cccc(C#Cc2cccc(C#Cc3cccc(N)n3)n2)n1`: the EC50 is over 200 µM and the IC50 was 75.9 µM.

Regarding `N#CC(NNC(=O)c1ccccc1O)c1c(O)ccc2ccccc12` (stereo not drawn), the EC50 was over 40.7 µM and the IC50 was determined as 3.8 µM.

With `O=C(O)CCC1C(=O)C2CCN1CC2` (stereo not drawn), the EC50 was over 200 µM and the concentration for half-maximal inhibition (IC50) was over 200 µM.

Regarding `COc1ccc2c(c1OC)C(=O)N/C2=C\c1c(CCN(C)C)cc2c(c1OC)OCO2`, the EC50 was over 200 µM and the IC50 is over 100 µM.

Consider `Cc1ccc(N(CC(=O)O)S(=O)(=O)c2ccccc2)cc1`, for which the outcome was inactive.

Turning to `C=CCn1c2c(sc1=S)C(S)N=CN2` (stereo not drawn), the EC50 is over 107 µM and the IC50 was found to be 42.7 µM.

For `O=C(/C=C/c1ccc2c(c1)OCO2)c1ccc(O)cc1`, the EC50 is over 200 µM and the IC50 stood at 29.5 µM.

On to `CN(C)C(=O)c1ccc(N=Nc2c(O)c3ccccc3[nH]c2=O)cc1`, for which the EC50 was over 200 µM and the IC50 was 36.3 µM.

Regarding `CCOC(=O)C[n+]1cccc(C2(c3cc4ccccc4[nH]3)OCCO2)c1`, the EC50 was over 200 µM and the IC50 was over 200 µM.

For the molecule `CC(=O)[C@H]1[C@H](O)C[C@@]2(C)[C@@H]3CCc4cc(O)c(OC5OC(CO)C(O)C(O)C5O)cc4C3(C)C(=O)C[C@]12C` (stereo partly drawn), the EC50 was over 200 µM and the IC50 was over 200 µM.

For the molecule `Cc1ccc(-c2n[nH]c(=O)n2/N=C\c2ccccc2)cc1`, the EC50 is over 200 µM and the IC50 was 110 µM.

Take `ClC1(Cl)C2(Cl)C3(Cl)C4C2(Cl)C2(Cl)C4(Cl)C3(Cl)C12Cl` (stereo not drawn): the EC50 was over 200 µM and the IC50 was 33.1 µM.

Take `O=C(NC1CCCC1=O)c1ccccc1` (stereo not drawn): the result was inactive.

In the case of `N#Cc1c(SCc2ccccc2)nc(-c2ccccc2)[nH]c1=S`, the EC50 is over 151 µM and the IC50 was found to be 19.5 µM.

In the case of `COC(=O)[C@@H]1C[C@@H]2c3ccccc3N(S(=O)(=O)c3ccccc3)[C@@H]2N1C(=O)OC`, the EC50 is over 200 µM and the IC50 was over 200 µM.

On to `O=S(=O)(O)c1ccc(Sc2ccc(S(=O)(=O)O)cc2)cc1`, for which the EC50 was over 631 µM and the 50% inhibitory concentration (IC50) was over 631 µM.

Regarding `NC(=S)N1N=C2c3ccccc3CC[C@@H]2[C@@H]1c1ccccc1`, the EC50 was over 34.7 µM and the IC50 was determined as 6.03 µM.

For the molecule `CCOC(=O)c1c2ccc(/C=C/C(=O)OC)ccc-2c(C(=O)OCC)c1N`, the EC50 is over 19.5 µM and the IC50 was over 19.5 µM.

On to `Cc1cc(CC(=O)NCCO)n(CCO)c(=O)c1`, for which the EC50 is over 977 µM and the IC50 was over 977 µM.

For the molecule `O=C(O)c1nc2ccc(C(F)(F)F)cc2nc1NCc1ccc(F)cc1`, the EC50 is over 200 µM and the IC50 worked out at 15.8 µM.

With `O=S1(=O)c2ccccc2NC(c2ccc3ccccc3c2)CC1c1ccccc1F` (stereo not drawn), the EC50 was over 6.46 µM and the IC50 was over 6.46 µM.

As for `O=S(=O)(Nc1nnc2ccc3ccccc3n12)c1ccc(Cl)cc1S`, the EC50 is over 200 µM and the half-maximal inhibitory concentration (IC50) was 105 µM.

`CCOC(=O)C(=C/C=C/NCCc1c[nH]c2ccccc12)C(=O)OCC`: the EC50 is over 10.7 µM and the 50% inhibitory concentration (IC50) is over 10.7 µM.

For the molecule `CSc1c(C(C)=O)c(O)n(-c2ccc(C)cc2)c(=O)c1C#N`, the EC50 was over 200 µM and the IC50 was 63.1 µM.

Regarding `C1=CC2(C=C1)OC21CCC2(C=CC3(C2)OC3C2CCCCC2)CC1` (stereo not drawn), the EC50 is over 200 µM and the IC50 was found to be 51.3 µM.

Consider `N#C/C(=C/N1CCNC1=S)C(N)=O`, for which the EC50 is over 200 µM and the IC50 was over 200 µM.

For `CN1c2c(nc(N)[nH]c2=O)NCC1CCNc1ccc(C(=O)NC(CCC(=O)O)C(=O)O)cc1` (stereo not drawn), the EC50 is over 240 µM and the 50% inhibitory concentration (IC50) came out at 204 µM.

Take `CC(=O)/C(=C/c1cccc(Cl)c1)C(=O)c1ccccc1`: the EC50 is over 34.7 µM and the IC50 was 17 µM.

Turning to `O=C1CN(CCCN2CCOCC2)CC(=O)N2Cc3ccccc3CN12`, the EC50 was over 200 µM and the IC50 is over 200 µM.

For the molecule `O=C(CC1SC(=Nc2ccccc2Cl)NC1=O)Nc1ccc(Cl)cc1` (stereo not drawn), the EC50 is over 631 µM and the IC50 is over 200 µM.

With `CC[C@]1(O)C[C@H]2CN(CCc3c([nH]c4ccccc34)[C@@](C(=O)OC)(c3cc4c(cc3OC)N(C)[C@H]3[C@@](O)(C(=O)OC)[C@H](OC(C)=O)[C@]5(CC)C=CCN6CC[C@]43[C@@H]65)C2)C1`, the EC50 is over 0.0302 µM and the IC50 came to 0.000355 µM.

Consider `NC(N)=N/N=C/c1c(-c2ccc(Cl)cc2)nc2sc(Cl)cn12`, for which the EC50 was over 20 µM and the half-maximal inhibitory concentration (IC50) is 1.07 µM.

For `Nc1ncnc2c1ncn2C1OC(COC2C(O)C(OC3OC(CO)C(O)C(O)C3N)C(O)C(OS(=O)(=O)O)C2OC(=O)[C@@H](N)CO)C(O)C1O` (stereo partly drawn), the EC50 is over 200 µM and the IC50 is over 200 µM.

With `C=C(C(=C)N1N=NC2C3CCC(C3)C21)N1N=NC2C3CCC(C3)C21` (stereo not drawn), the EC50 was over 2.34 µM and the IC50 was over 2.34 µM.

The record behind these values is PubChem BioAssay AID179 (DTP/NCI, 2004).
